Results reported in patent US6416735B1 (priority 1999, dated 2002).
Structures can show the parent of a compound that is named as a salt. Where two headings read alike, the source gives them in different places.

Tests used:
α7 nAChR = α7 nAChR (Rattus norvegicus, UniProt Q05941); assay: biochemical; format: binding
[1] = in vivo; cited from earlier work
α4β2 nAChRs = α4β2 nAChRs (Rattus norvegicus, UniProt P09483+P12390); assay: biochemical; format: binding
[2] = read-out: KI, inhibition of [^125I]Iodo-MLA binding

Chain of α7 nAChR (Q05941 23-502): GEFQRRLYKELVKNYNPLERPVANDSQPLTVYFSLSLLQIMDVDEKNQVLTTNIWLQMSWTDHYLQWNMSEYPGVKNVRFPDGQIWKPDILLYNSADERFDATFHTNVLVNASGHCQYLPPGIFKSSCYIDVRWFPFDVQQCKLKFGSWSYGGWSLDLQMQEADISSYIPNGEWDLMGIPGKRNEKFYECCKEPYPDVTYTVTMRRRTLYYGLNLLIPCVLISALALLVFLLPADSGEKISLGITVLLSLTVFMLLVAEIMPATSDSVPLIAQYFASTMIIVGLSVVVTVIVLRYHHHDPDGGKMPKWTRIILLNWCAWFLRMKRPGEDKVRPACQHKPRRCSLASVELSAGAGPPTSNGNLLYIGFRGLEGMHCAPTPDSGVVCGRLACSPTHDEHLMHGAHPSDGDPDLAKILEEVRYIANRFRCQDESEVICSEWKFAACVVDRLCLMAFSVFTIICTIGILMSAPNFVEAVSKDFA
Chain of α4β2 nAChRs (P12390 25-500): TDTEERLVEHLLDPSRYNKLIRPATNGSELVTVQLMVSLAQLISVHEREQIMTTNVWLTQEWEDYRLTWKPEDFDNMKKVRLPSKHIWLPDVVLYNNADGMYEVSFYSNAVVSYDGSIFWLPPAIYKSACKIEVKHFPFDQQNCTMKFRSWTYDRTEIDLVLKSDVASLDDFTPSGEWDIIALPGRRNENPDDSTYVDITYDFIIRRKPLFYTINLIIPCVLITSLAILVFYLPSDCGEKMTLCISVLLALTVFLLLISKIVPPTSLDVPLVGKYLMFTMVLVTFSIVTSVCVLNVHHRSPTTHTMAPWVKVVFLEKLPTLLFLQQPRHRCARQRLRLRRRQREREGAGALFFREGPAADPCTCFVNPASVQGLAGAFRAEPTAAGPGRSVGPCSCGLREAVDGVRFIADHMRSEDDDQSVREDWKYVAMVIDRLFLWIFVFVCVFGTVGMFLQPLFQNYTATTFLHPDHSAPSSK
Chain of α4β2 nAChRs (P09483 31-630): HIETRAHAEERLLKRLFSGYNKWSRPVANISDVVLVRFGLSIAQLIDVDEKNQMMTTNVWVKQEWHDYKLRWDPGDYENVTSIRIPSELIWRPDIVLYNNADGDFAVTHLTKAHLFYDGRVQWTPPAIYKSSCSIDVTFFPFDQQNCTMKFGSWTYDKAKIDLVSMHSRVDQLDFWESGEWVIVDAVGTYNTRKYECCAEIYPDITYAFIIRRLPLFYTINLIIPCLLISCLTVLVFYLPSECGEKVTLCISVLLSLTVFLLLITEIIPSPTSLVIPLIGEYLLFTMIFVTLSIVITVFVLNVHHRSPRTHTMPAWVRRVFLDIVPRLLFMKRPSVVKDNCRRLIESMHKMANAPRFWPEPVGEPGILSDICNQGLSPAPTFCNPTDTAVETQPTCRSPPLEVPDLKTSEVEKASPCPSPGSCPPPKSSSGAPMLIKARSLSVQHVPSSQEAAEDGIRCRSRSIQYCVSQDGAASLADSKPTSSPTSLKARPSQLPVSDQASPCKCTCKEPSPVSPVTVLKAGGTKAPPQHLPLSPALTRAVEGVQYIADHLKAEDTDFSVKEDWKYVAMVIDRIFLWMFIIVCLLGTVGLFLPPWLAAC

With `CCN1CC2(COC(=O)c3cc(I)ccc3N3C(=O)CC(C)C3=O)CCC(OC)C34C5CC6C(OC)CC(O)(C5C6OC)C(O)(C(OC)C23)C14` (stereo not shown) (as salt: citrate) [iodo-MLA, Iodo-methyllycaconitine] as the compound, how does the melting point read?
The melting point was 115 to 116 °C.

With `CN1CCCC1c1cccnc1` (single isomer, unassigned; (-)) [(-)-Nicotine] as the compound, how does the “displacing [^125I]iodo-MLA (in words)” value (α7 nAChR) read?
Its value is “weak or ineffective”.

Which Ki (α7 nAChR; [2]) does the source give for `C(=Cc1ccccc1)C=C1CCCN=C1c1cccnc1` [3-Cinnamylidene-anabasine] here?
Its Ki is 15.3 ± 2 nM.

With `CO[C@H]1CC=C2CCN3CCC4=C(CC(=O)OC4)[C@]23C1` [Dihydro-β-erythroidine] as the compound, how does the “displacing [^125I]iodo-MLA (in words)” value (α7 nAChR) read?
The value was “weak or ineffective”.

What about the Ki (α7 nAChR; [2]) of the same compound?
The Ki was greater than 10000 nM.

Which “crossing of the blood-brain barrier” value [1] does the source give for `CCN1C[C@]2(COC(=O)c3ccccc3N3C(=O)C[C@H](C)C3=O)CC[C@H](OC)[C@@]34[C@@H]5C[C@H]6[C@H](OC)[C@@H]5[C@](O)(C[C@@H]6OC)[C@@](O)([C@@H](OC)[C@H]23)[C@@H]14` [MLA, Methyllycaconitine] here?
Its value is “crosses the blood-brain barrier”.

Which results are given for `CNC1(C)C2CCC(C2)C1(C)C` (stereo not shown) [Mecamylamine]?
Ki (α7 nAChR): > 10000 nM; displacing [^125I]iodo-MLA (in words) (α7 nAChR): weak or ineffective

With `CCN1CC2(COC(=O)c3cc(I)ccc3N3C(=O)CC(C)C3=O)CCC(OC)C34C5CC6C(OC)CC(O)(C5C6OC)C(O)(C(OC)C23)C14` (stereo not shown) [iodo-MLA, Iodo-methyllycaconitine] as the compound, how does the Ki (α4β2 nAChRs) read?
Its Ki is greater than 1000 nM.

What about the “affinity at α4β2 nAChRs (in words)” value (α4β2 nAChRs) of the same compound?
Its value is “poor affinity”.

Which “crossing of the blood-brain barrier” value [1] does the source give for α-Bungarotoxin here?
The value was “does not cross the blood-brain barrier”.

And the “Ki for displacing [^125I]iodo-MLA (in words)” value (α7 nAChR)?
Its value is “low nanomolar range”.

What about the Ki (α7 nAChR; [2]) of the same compound?
Its Ki is 2 ± 0.1 nM.
